Patent US9914722B2, “Compounds for treating spinal muscular atrophy” (PTC Therapeutics Inc., priority 2012, dated 2018)

Key:
[1] = tested on: full length SMN2 minigene mRNA containing SMN2 exon 7 (SMN2-A minigene); assay: SMN2 minigene mRNA splicing RT-qPCR assay in cultured cells; type: cell-based, human; details: Homo sapiens, HEK293-H; HEK293H cells stably transfected with SMN2-A minigene, 24 hours, 7-point concentration curve; concentration giving 1.5-fold SMN2 full length mRNA vs vehicle; read-out: EC1.5x for production of full length SMN2 mRNA
Protocol: SMN2 Minigene mRNA Splicing RT-qPCR Assay in Cultured Cells
The reverse transcription-quantitative PCR-based (RT-qPCR) assay is used to quantify the level of the full length SMN2 minigene mRNA containing SMN2 exon 7 in a HEK293H cell line stably transfected with said minigene and treated with a test compound.
Protocol. HEK293H cells stably transfected with the SMN2-A minigene construct described above (10,000 cells/well) are seeded in 200 μL of cell culture medium (DMEM plus 10% FBS, with 200 μg/mL hygromycin) in 96-well flat-bottom plates and the plate is immediately swirled to ensure proper dispersal of cells, forming an even monolayer of cells. Cells are allowed to attach for at least 4-6 hours. Test compounds are serially diluted 3.16-fold in 100% DMSO to generate a 7-point concentration curve. A solution of test compound (1 μL, 200× in DMSO) is added to each cell-containing well and the plate is incubated for 24 hours in a cell culture incubator (37° C., 5% CO2, 100% relative humidity). Two replicates are prepared for each test compound concentration. The cells are then lysed in Cells-To-Ct lysis buffer and the lysate is stored at −80° C.
Primer SMN Forward A (SEQ ID NO. 1) hybridizes to a nucleotide sequence in exon 7 (nucleotide 22 to nucleotide 40), primer SMN Reverse A (SEQ ID NO. 2) hybridizes to a nucleotide sequence in the coding sequence of Firefly luciferase, SMN Probe A (SEQ ID NO. 3) hybridizes to a nucleotide sequence in exon 7 (nucleotide 50 to nucleotide 54) and exon 8 (nucleotide 1 to nucleotide 21). The combination of these three oligonucleotides detects only SMN1 or SMN2 minigenes (RT-qPCR) and will not detect endogenous SMN1 or SMN2 genes.
The SMN forward and reverse primers are used at final concentrations of 0.4 μM. The SMN probe is used at a final concentration of 0.15 μM. The GAPDH primers are used at final concentrations of 0.2 μM and the probe at 0.15 μM.
The SMN2-minigene GAPDH mix (15 μL total volume) is prepared by combining 7.5 μL of 2×RT-PCR buffer, 0.4 μL of 25×RT-PCR enzyme mix, 0.75 μL of 20×GAPDH primer-probe mix, 4.0075 μL of water, 2 μL of 10-fold diluted cell lysate, 0.06 μL of 100 μM SMN forward primer, 0.06 μL of 100 μM SMN reverse primer, and 0.225 μL of 100 μM SMN probe.
PCR is carried out at the following temperatures for the indicated time: Step 1: 48° C. (15 min); Step 2: 95° C. (10 min); Step 3: 95° C. (15 sec); Step 4: 60° C. (1 min); then repeat Steps 3 and 4 for a total of 40 cycles.
Each reaction mixture contains both SMN2-A minigene and GAPDH primers/probe sets (multiplex design), allowing simultaneous measurement of the levels of two transcripts.
Two SMN spliced products are generated from the SMN2 minigene. The first spliced product containing exon 7, corresponding to SMN2 full length mRNA, is referred to herein using the term “SMN2 minigene FL.” The second spliced product lacking exon 7 is referred to herein using the term “SMN2 minigene Δ7.”
The increase of SMN2 minigene FL mRNA relative to that in cells treated with vehicle control is determined from real-time PCR data using a modified ΔΔCt method (as described in Livak and Schmittgen, Methods, 2001, 25:402-8). The amplification efficiency (E) is calculated from the slope of the amplification curve for SMN2 minigene FL and GAPDH mRNA individually. The abundance of SMN2 minigene FL and GAPDH mRNA are then calculated as (1+E)^−Ct, where Ct is the threshold value for each amplicon. The abundance of SMN2 minigene FL is normalized to GAPDH abundance. The normalized SMN2 minigene FL abundance from test compound-treated samples is then divided by normalized SMN2 minigene FL abundance from vehicle-treated cells to determine the level of SMN2 FL mRNA relative to vehicle control. […]

[2] = tested on: Smn protein; assay: Smn protein assay (Smn HTRF) in cultured cells; type: cell-based, human; details: Homo sapiens, Fibroblast, GM03813 SMA Type 1 patient fibroblasts, 48 hours, HTRF; for maximal fold induction: 7-point concentration data, relative to vehicle, read-out: maximum fold (Fold) increase of Smn protein; for EC (1.5-fold): concentration producing 1.5 times Smn protein vs DMSO vehicle, read-out: EC1.5x for Smn protein expression
Protocol: Smn Protein Assay in Cultured Cells
The Smn HTRF (homogeneous time resolved fluorescence) assay is used to quantify the level of Smn protein in SMA patient fibroblast cells treated with test compounds.
Protocol. Cells are thawed and cultured in DMEM-10% FBS for 72 hours. Cells are trypsinized, counted and re-suspended to a concentration of 25,000 cells/mL in DMEM-10% FBS. The cell suspension is plated at 5,000 cells per well in a 96 well microtiter plate and incubated for 3 to 5 hours. […] Test compounds are serially diluted 3.16-fold in 100% DMSO to generate a 7-point concentration curve. 1 μL of test compound solution is transferred to cell-containing wells and cells are incubated for 48 hours in a cell culture incubator (37° C., 5% CO2, 100% relateive humidity). Triplicate samples are set up for each test compound concentration. After 48 hours, the supernatant is removed from the wells and 25 μL of the RIPA lysis buffer, containing protease inhibitors, is added to the wells and incubated with shaking at room temperature for 1 hour. 25 μL of the diluent is added and then 35 μL of the resulting lysate is transferred to a 384-well plate, where each well contains 5 μL of the antibody solution (1:100 dilution of anti-SMN d2 and anti-SMN kryptate in SMN reconstitution buffer). The plate is centrifuged for 1 minute to bring the solution to the bottom of the wells, then incubated overnight at room temperature. Fluorescence for each well of the plate at 665 nm and 620 nm is measured on an EnVision multilabel plate reader (Perkin-Elmer).
The normalized fluorescence signal is calculated for each sample, Blank and vehicle control well by dividing the signal at 665 nm by the signal at 620 nm. Normalizing the signal accounts for possible fluorescence quenching due to the matrix effect of the lysate. The AF value (a measurement of Smn protein abundance as a percent value) for each sample well is calculated by subtracting the normalized average fluorescence for the Blank control wells from the normalized fluorescence for each sample well, then dividing this difference by the normalized average fluorescence for the Blank control wells and multiplying the resulting value by 100. The ΔF value for each sample well represents the Smn protein abundance from test compound-treated samples. The ΔF value for each sample well is divided by the ΔF value for the vehicle control wells to calculate the fold increase in Smn protein abundance relative to the vehicle control.
For compounds of Formula (I) or a form thereof disclosed herein, Table 9 provides the EC1.5x for Smn protein expression that was obtained from the 7-point concentration data generated for each test compound according to the procedure of Biological Example 7. The term “EC1.5x for Smn protein expression” is defined as that concentration of test compound that is effective in producing 1.5 times the amount of Smn protein in an SMA patient fibroblast cell compared to the amount produced from the DMSO vehicle control. An EC1.5x for Smn protein expression between >3 μM and ≦10 μM is indicated by one star (*), an EC1.5x between >1 μM and ≦3 μM is indicated by two stars (**), an EC1.5x between >0.3 μM and ≦1 μM is indicated by three stars (***) and an EC1.5x≦0.3 μM is indicated by four stars (****).
For compounds of Formula (I) or a form thereof disclosed herein, Table 10 provides the maximum fold (Fold) increase of Smn protein that was obtained from the 7-point concentration data generated for each test compound according to the procedure of Biological Example 7. A maximum fold increase ≦1.2 is indicated by one star (*), a fold increase between >1.2 and ≦1.35 is indicated by two stars (**), a fold increase between >1.35 and ≦1.5 is indicated by three stars (***), a fold increase between >1.5 and ≦1.65 is indicated by four stars (****) and a fold increase >1.65 is indicated by five stars (*****).

| SMILES | melting point [°C] | EC (1.5-fold) [1] [µM] | maximal fold induction [2] | EC (1.5-fold) [2] [µM] |
| --- | --- | --- | --- | --- |
| O=c1cc(-c2ccccn2)oc2ccc(N3CCNCC3)cc12 [Cpd 7, 6-(piperazin-1-yl)-2-(pyridin-2-yl)-4H-chromen-4-one] | 170 to 172 | 0.3 to 1 | 1.5 to 1.65 | 3 to 10 |
| CCN1CCN(c2ccc3oc(-c4cccnc4)cc(=O)c3c2)CC1 [Cpd 3, 6-(4-ethylpiperazin-1-yl)-2-(pyridin-3-yl)-4H-chromen-4-one] | 140 to 142 | 3 to 30 | ≤ 1.2 |  |
| C[C@@H]1CN(c2ccc3oc(-c4ccccn4)cc(=O)c3c2)C[C@H](C)N1 [Cpd 13, 6-[(3R,5S)-3,5-dimethylpiperazin-1-yl]-2-(pyridin-2-yl)-4H-chromen-4-one] | 166 to 168 | 1 to 3 | 1.35 to 1.5 |  |
| O=c1cc(-c2ccccn2)oc2ccc(N3CCCNCC3)cc12 [Cpd 14, 6-(1,4-diazepan-1-yl)-2-(pyridin-2-yl)-4H-chromen-4-one] | 170 to 172 | 3 to 30 | ≤ 1.2 |  |
| Cc1cn2cc(-c3cc(=O)c4cc(N5CCNCC5)ccc4o3)nc2cn1 [Cpd 72, 2-(6-methylimidazo[1,2-a]pyrazin-2-yl)-6-(piperazin-1-yl)-4H-chromen-4-one] |  | ≤ 0.1 | > 1.65 | ≤ 0.3 |
| CN1CCN(c2ccc3oc(-c4cccnc4)cc(=O)c3c2)CC1 [Cpd 2, 6-(4-methylpiperazin-1-yl)-2-(pyridin-3-yl)-4H-chromen-4-one] |  | 3 to 30 | 1.2 to 1.35 |  |
| CCOc1ccc(-c2cc(=O)c3cc(N4C[C@@H](C)N[C@@H](C)C4)ccc3o2)cc1 [Cpd 43, 6-[(3R,5S)-3,5-dimethylpiperazin-1-yl]-2-(4-ethoxyphenyl)-4H-chromen-4-one] |  | 1 to 3 | ≤ 1.2 |  |

Second part, led by results:

| melting point [°C] | SMILES | EC (1.5-fold) [1] [µM] | maximal fold induction [2] | EC (1.5-fold) [2] [µM] |
| --- | --- | --- | --- | --- |
| 188 to 190 | CCN1CCN(c2ccc3oc(-c4ccc(OC)c(OC)c4)cc(=O)c3c2)CC1 [Cpd 22, 2-(3,4-dimethoxyphenyl)-6-(4-ethylpiperazin-1-yl)-4H-chromen-4-one] | 0.3 to 1 | > 1.65 | 1 to 3 |
| 152 to 154 | COc1ccc(-c2cc(=O)c3cc(N4CCCNCC4)ccc3o2)cc1OC [Cpd 25, 6-(1,4-diazepan-1-yl)-2-(3,4-dimethoxyphenyl)-4H-chromen-4-one] | 3 to 30 | 1.35 to 1.5 |  |
| 198 to 200 | O=c1cc(-c2cn3ccccc3n2)oc2ccc(N3CCCNCC3)cc12 [Cpd 18, 6-(1,4-diazepan-1-yl)-2-(imidazo[1,2-a]pyridin-2-yl)-4H-chromen-4-one] | 3 to 30 | > 1.65 | 3 to 10 |
| 150 to 155 | Cc1ccn2cc(-c3cc(=O)c4cc(N5CCN[C@H](C)C5)ccc4o3)nc2c1 [Cpd 29, 2-(7-methylimidazo[1,2-a]pyridin-2-yl)-6-[(3R)-3-methylpiperazin-1-yl]-4H-chromen-4-one] | 3 to 30 | 1.35 to 1.5 | 3 to 10 |
| 206 to 208 | COc1ccc(-c2cc(=O)c3cc(N4C[C@@H](C)N[C@@H](C)C4)ccc3o2)cc1OC [Cpd 24, 2-(3,4-dimethoxyphenyl)-6-[(3R,5S)-3,5-dimethylpiperazin-1-yl]-4H-chromen-4-one] | 0.3 to 1 | > 1.65 | 1 to 3 |
| 172 to 174 | COc1ccc(-c2cc(=O)c3cc(N4CCN[C@@H](C)C4)ccc3o2)cc1Cl [Cpd 59, 2-(3-chloro-4-methoxyphenyl)-6-[(3S)-3-methylpiperazin-1-yl]-4H-chromen-4-one] | ≤ 0.1 | 1.5 to 1.65 | ≤ 0.3 |
| 150 to 152 | C[C@H]1CN(c2ccc3oc(-c4cccc(C(F)(F)F)c4)cc(=O)c3c2)CCN1 [Cpd 78, 6-[(3S)-3-methylpiperazin-1-yl]-2-[3-(trifluoromethyl)phenyl]-4H-chromen-4-one] | ≤ 0.1 | > 1.65 | ≤ 0.3 |
| 145 to 150 | COc1ccc(-c2cc(=O)c3cc(N4CCNCC4)ccc3o2)cc1Cl [Cpd 58, 2-(3-chloro-4-methoxyphenyl)-6-(piperazin-1-yl)-4H-chromen-4-one] | ≤ 0.1 | 1.35 to 1.5 | 1 to 3 |
